Data published in patent US6900351B2, “Aminopolycarboxylates, process for producing the same and use thereof” (Tosoh Corporation, priority 2000, dated 2005).

Test: Chelatability (constant of calcium ion stability) test with calcium ion electrode
Type: physicochemical
Conditions: 25° C., pH 10, 1 mmol/l chelating agent with equivalent 1 mmol/l calcium chloride
Method: To 1 mmol/l aqueous solution of this sodium aminopolycarboxylate, an equivalent amount of a 1 mmol/l aqueous solution of calcium chloride was added. Then the constant of calcium ion stability (pKCa^2+) was determined by measuring the calcium ion concentration at pH 10.0 by using a calcium ion electrode.
(1) Formation of Calibration Curve
By using calcium chloride, solutions having calcium concentrations of 0.1 mmol/l, 1.0 mmol/l and 10 mmol/l were prepared and the potential of each solution was measured. Based on the data thus obtained, a calibration curve of the logarithmic calcium ion concentration vs. potential was formed.
(2) Measurement of Constant of Stability
An aqueous solution (100 ml) was prepared by adding a chelating agent (1 mmol/l) and calcium chloride (1 mmol/l) at an equivalent ratio to an aqueous solution containing 0.1 mmol/l of ammonium chloride to achieve a constant ionic strength. After stirring this solution for 10 minutes, the potential of the solution at 25° C. at pH 10 was measured. Based on the calibration curve formed in (1), the calcium ion concentration corresponding to the potential thus measured was determined and the constant of stability was calculated on the assumption that the sample and calcium ion formed a complex at a ratio of 1:1.

## O=C([O-])CC(NCCNC(CC(=O)[O-])C(=O)O)C(=O)[O-].[Na+].[Na+].[Na+] (stereo not shown) [trisodium N,N′-ethylenediaminedisuccinate, reference compound]
  constant of calcium ion stability (pKCa2+): 3.8
